± gives the standard deviation of the averaged measurements.
Key:
[1] = test system: HL-60; assay: cell viability (% survival relative to DMSO control); higher = less cytotoxic; conditions: 72 h
Procedure, shortened: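 HL-60 cells in RPMI 1640 with 10% FBS were rescreened against the full library on 384-well plates at five tenfold concentrations, 1–10,000 nM, in duplicate. Each screen was run with DMSO or 100 nM of one of three metabolic inhibitors, for 72 h at 37 °C, 5% CO2. Viability was read by CellTiter-Glo and normalised to DMSO and 10 μM proteasome-inhibitor wells. Where given, area under the curve came from four-parameter log-logistic fits (drc, PharmacoGx).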

[2] = test system: MV4-11; assay: cell viability (% survival relative to DMSO control, bortezomib = 0%); higher = less cytotoxic; conditions: 72 h
Procedure, shortened: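 Fifteen myeloid leukaemia cell lines (10 AML, 5 CML) were seeded at a density titrated to the linear growth range. They went into 384-well plates with compounds pre-printed at 1, 10, 100, 1000 or 10000 nM in duplicate. After 72 h at 37 °C with 5% CO2, viability was read by CellTiter-Glo luminescence. Values are percent survival, with vehicle set to 100% and a 10 µM positive control to 0%, averaged over the duplicates.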

[3] = 0.001 µM, co-treatment: AZD3965 100 nM
[4] = 0.001 µM, co-treatment: DMSO vehicle
[5] = 0.001 µM, co-treatment: GSK2194069 100 nM
[6] = 0.001 µM, co-treatment: pictilisib 100 nM
[7] = 0.01 µM, co-treatment: AZD3965 100 nM
[8] = 0.01 µM, co-treatment: DMSO vehicle
[9] = 0.01 µM, co-treatment: GSK2194069 100 nM
[10] = 0.01 µM, co-treatment: pictilisib 100 nM
[11] = 0.1 µM, co-treatment: AZD3965 100 nM
[12] = 0.1 µM, co-treatment: DMSO vehicle
[13] = 0.1 µM, co-treatment: GSK2194069 100 nM
[14] = 0.1 µM, co-treatment: pictilisib 100 nM
[15] = 1 µM, co-treatment: AZD3965 100 nM
[16] = 1 µM, co-treatment: DMSO vehicle
[17] = 1 µM, co-treatment: GSK2194069 100 nM
[18] = 1 µM, co-treatment: pictilisib 100 nM
[19] = 10 µM, co-treatment: AZD3965 100 nM
[20] = 10 µM, co-treatment: DMSO vehicle
[21] = 10 µM, co-treatment: GSK2194069 100 nM
[22] = 10 µM, co-treatment: pictilisib 100 nM

Compound | cell viability [1, 3] [%] | cell viability [1, 4] [%] | cell viability [1, 5] [%] | cell viability [1, 6] [%] | cell viability [1, 7] [%] | cell viability [1, 8] [%] | cell viability [1, 9] [%] | cell viability [1, 10] [%] | cell viability [1, 11] [%] | cell viability [1, 12] [%] | cell viability [1, 13] [%] | cell viability [1, 14] [%] | cell viability [1, 15] [%] | cell viability [1, 16] [%] | cell viability [1, 17] [%] | cell viability [1, 18] [%] | cell viability [1, 19] [%] | cell viability [1, 20] [%] | cell viability [1, 21] [%] | cell viability [1, 22] [%] | cell viability ([2]; 1 nM) [%] | cell viability ([2]; 10 nM) [%] | cell viability ([2]; 100 nM) [%] | cell viability ([2]; 1000 nM) [%] | cell viability ([2]; 10000 nM) [%]
NCCCC(N)(C(=O)O)C(F)F (stereo not given) [Difluoromethylornithine] | 105 ± 3.3 | 103 ± 2.6 | 101 ± 7.7 | 100 ± 9.8 | 100.5 ± 0.84 | 97.01 ± 0.84 | 98.8 ± 4.4 | 92.3 ± 4 | 100 ± 0.81 | 104 ± 6 | 104 ± 1.5 | 97.2 ± 1.6 | 93.5 ± 2.9 | 101 ± 1.8 | 95.6 ± 6.4 | 92.6 ± 4.1 | 96.8 ± 4 | 103 ± 1.9 | 101 ± 4.5 | 94.6 ± 2 | 93.8 | 98.9 | 81.3 | 85.5 | 109
CCCc1cc(-c2nc(-c3ccc(C)cc3)cs2)ccn1 [Fatostatin] | 75.1 ± 31 | 92.9 ± 9.1 | 95.9 ± 4.6 | 90.3 ± 5.6 | 101.7 ± 0.39 | 96.1 ± 6.7 | 94.22 ± 0.22 | 97.8 ± 3.4 | 102 ± 2.5 | 101 ± 4.4 | 96.1 ± 8.5 | 105 ± 6.5 | 103 ± 7.9 | 98.5 ± 4.1 | 92.5 ± 13 | 96.7 ± 17 | 79.9 ± 18 | 94.39 ± 0.83 | 70.7 ± 7 | 63.5 ± 11 | 105 | 95.9 | 93.2 | 98.2 | 65.7
Cl.NC(CCC(=O)Nc1ccc([N+](=O)[O-])cc1)C(=O)O (stereo not given) [GPNA] | 96.99 ± 0.35 | 98.13 ± 0.34 | 99.6 ± 1.1 | 100.2 ± 0.41 | 97.1 ± 2.5 | 100 ± 4.6 | 104 ± 9.2 | 97.4 ± 1.8 | 103.3 ± 0.85 | 98.7 ± 5.5 | 99.4 ± 5.2 | 98.5 ± 1.1 | 102 ± 2.1 | 102 ± 4.2 | 85.4 ± 20 | 98.7 ± 7.6 | 94.3 ± 2.4 | 98.5 ± 2.3 | 96.8 ± 1.4 | 92.5 ± 1.4 | 117 | 93.5 | 100 | 99.5 | 124
CC(C)c1onc(-c2c(Cl)cccc2Cl)c1COc1ccc(/C=C/c2cccc(C(=O)O)c2)c(Cl)c1 [GW4064] | 102 ± 3.9 | 99.99 ± 0.47 | 99.3 ± 7.7 | 86.7 ± 13 | 98.93 ± 0.69 | 99.3 ± 1.1 | 98.9 ± 1.6 | 96.6 ± 2 | 91 ± 13 | 101 ± 1.8 | 97.7 ± 1.6 | 90.9 ± 10 | 109 ± 3.3 | 99.9 ± 2.6 | 90.85 ± 0.69 | 105 ± 1.7 | 93.1 ± 5.6 | 99.6 ± 2 | 75.5 ± 2.3 | 97.1 ± 1 | 110 | 107 | 78.6 | 68.2 | 6.8
